Experiments:
[1] = tested on: panel of 220 human kinases; assay: SelectScreen kinase profiling, panel of 220 kinases; type: biochemical; conditions: 1 µM, 1 h, besides IRE1
Procedure: The kinome selectivity of G6374 was assessed at 1 μM for 1 h versus a panel of 220 human kinases (SelectScreen Kinase Profiling Services, Thermo Fisher Scientific). The assays were conducted using either the Z’-LYTE technology to assess inhibition of enzyme activity ([ATP] = Km) or the TR-FRET-based LanthaScreen Eu Kinase Binding assay to assess competitive displacement of an ATP site binding probe. Assay results were normalized to positive and negative controls to determine percent inhibition. Image was created by KNIME Report Designer (KNIME.com AG, Zurich, Switzerland). Kinases for which ATP binding was inhibited by more than 90% were further examined by IB analysis for depletion by G6374 in AMO1 cells (4 h incubation).

[2] = target: T1, IRE1.KR with recombinant CRL2^VHL complex (Homo sapiens, UniProt O75460+P40337); assay: In vitro ubiquitination of recombinant IRE1.KR by CRL2^VHL; type: biochemical; conditions: 0.2 µM IRE1, 0.2 µM G6374, UBE2R1, native ubiquitin
T1 construct: Recombinant human IRE1.KR (G547-L977) was purified using an established protocol; His6 (with TEV protease cleavage site) (N, cleaved yes); made in house; host or cells: Sf9 (IRE1.KR)
Procedure: The protocol for the in vitro ubiquitination experiment was adapted from a previous publication.
The ubiquitination reaction buffer contained 30 mM Tris pH 7.5, 100 mM NaCl, 5 mM MgCl2, 2 mM ATP, and 2 mM DTT. Recombinant proteins and G6374 with high stock concentrations were pre-diluted in binding buffer containing 30 mM Tris, pH 7.5, 100 mM NaCl, 1 mM DTT for the purpose of accurate pipetting.
The 0.2 µM IRE1: 0.2 µM G6374 (or DMSO) complex was pre-incubated for 15 min at room temperature, then incubated with the neddylation reaction mixture containing 0.2 µM VHL:EloB:EloC, 0.2 µM CUL2-RBX1, 0.1 µM NAE1:UBA3, 1 μM UBE2M, 3 μM NEDD8 for another 15 min at room temperature. Meanwhile, the ubiquitination reaction mixture containing 1 μM UBE1, 5 μM UBE2R1 (or UBE2D1, UBE2D2), and 500 μM ubiquitin or methyl-ubiquitin was prepared and pre-incubated for 15 min before incubation with the neddylation reaction mixture containing IRE1:G6374. Samples were taken at each timepoint and quenched in NuPage LDS buffer supplemented with NuPAGE sample reducing agent, then boiled at 95 °C for 10 min. Ubiquitinated products were visualized by IB with the IRE1 antibody.

IRE1 H579A:VHL = target: T2, IRE1 H579A:VHL (Homo sapiens, UniProt O75460+P40337, H579A); assay: NanoBRET IRE1:VHL interaction, IRE1 H579A, HEK293T cells; type: cell-based
T2 construct: N2731; host or cells: HEK293T
Procedure: 8 × 10^5 293T cells per well were seeded in 6-well plates (Costar, #3516) and incubated at 37 °C, 5% CO2 for 6 h. A mixture of 0.2 µg ERN1 (IRE1)-NanoLuc Fusion Vector (Promega, NV1321), 2 µg HaloTag-VHL Fusion Vector (Promega, N2731), 6 µl FuGENE HD Transfection Reagent (Promega, E2311), and 100 µL Opti-MEM I reduced serum medium (Gibco, #31985062) per well was incubated at room temperature for 20 min before adding to cells. For expression of IRE1 mutants, site-directed mutagenesis was performed using the ERN1-NanoLuc Fusion Vector as the DNA template, and the transfection mixture was prepared in the same way as WT IRE1. After 18 h, cells from 6-well plates were trypsinized, resuspended in Opti-MEM I reduced serum medium, and reseeded into 96-well plates (Costar, #3917), with or without the addition of HaloTag NanoBRET 618 Ligand (Promega, G9801). After 18 h of incubation, a titration of G6374 (dilutions made in Opti-MEM I reduced serum medium) was added to the cells. After 2 h of G6374 treatment, NanoBRET Nano-Glo Substrate (Promega, N1571) was added to cells. The 96-well plates were imaged by GloMax Discover Microplate Reader (Promega, GM3000) with the default “BRET: NanoBRET 618” protocol (Donor: 450 BP; Acceptor: 600 LP; Integration: 0.3 s). Data analysis was performed according to the user manual.

AMO1 cells = assay: Incucyte cell confluency, AMO1 cells; type: cell-based; conditions: AMO1 shIRE1 cells, titration
Procedure: For non-adherent AMO1, KMS27, and OPM2 cells, cells were plated at 5000 cells/well in ultra-low attachment (ULA) 96-well plates (Costar, #7007) and centrifuged at 600 × g for 5 min for spheroid formation. For adherent U2OS and Colo201 cells, 2000 cells/well were seeded in a clear flat-bottom 96-well plate (Costar, #3595). Treatments were added at the time of cell seeding, and cells were cultured in complete RPMI media to a final volume of 200 µL/well. Cultures were maintained at 37 °C throughout the duration of the experiment. Cell confluency was tracked using the Incucyte live-cell imaging system (Sartorius S3). Picture frames were captured every 4 h with a 4× objective, and cell confluency (%) from the total well area as a function of time was calculated using the Incucyte software (version 2023 A Rev2).

IRE1 = tested on: IRE1; design: method as in earlier work; conditions: VHL:G6374:IRE1; cited from earlier work

T2 sequence (O75460 19-977 H579A): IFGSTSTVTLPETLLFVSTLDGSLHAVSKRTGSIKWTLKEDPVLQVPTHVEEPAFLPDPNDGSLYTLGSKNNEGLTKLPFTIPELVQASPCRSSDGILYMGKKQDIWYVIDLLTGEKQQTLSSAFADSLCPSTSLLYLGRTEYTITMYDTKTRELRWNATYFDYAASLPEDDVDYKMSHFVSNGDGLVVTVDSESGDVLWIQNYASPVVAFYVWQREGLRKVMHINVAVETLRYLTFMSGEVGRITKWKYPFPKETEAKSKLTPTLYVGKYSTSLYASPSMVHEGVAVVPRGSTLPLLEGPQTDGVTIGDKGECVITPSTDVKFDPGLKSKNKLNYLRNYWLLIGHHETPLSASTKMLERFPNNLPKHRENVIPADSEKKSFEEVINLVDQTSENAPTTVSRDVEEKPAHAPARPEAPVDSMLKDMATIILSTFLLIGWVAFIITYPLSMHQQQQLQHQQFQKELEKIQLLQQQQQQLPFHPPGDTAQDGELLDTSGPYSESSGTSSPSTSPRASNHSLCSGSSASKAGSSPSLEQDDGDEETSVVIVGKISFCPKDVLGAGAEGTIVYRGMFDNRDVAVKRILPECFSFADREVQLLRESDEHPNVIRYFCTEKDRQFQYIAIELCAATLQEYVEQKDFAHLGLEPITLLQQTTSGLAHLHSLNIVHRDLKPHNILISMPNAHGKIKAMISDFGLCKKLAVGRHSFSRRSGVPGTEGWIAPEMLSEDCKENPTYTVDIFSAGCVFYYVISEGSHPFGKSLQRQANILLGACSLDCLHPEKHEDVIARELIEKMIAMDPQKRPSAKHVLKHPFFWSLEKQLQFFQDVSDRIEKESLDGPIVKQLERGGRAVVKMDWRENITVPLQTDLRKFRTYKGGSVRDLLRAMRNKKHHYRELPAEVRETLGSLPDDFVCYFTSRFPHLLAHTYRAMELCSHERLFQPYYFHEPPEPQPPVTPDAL
T2 sequence (Q13617 whole entry, further chain): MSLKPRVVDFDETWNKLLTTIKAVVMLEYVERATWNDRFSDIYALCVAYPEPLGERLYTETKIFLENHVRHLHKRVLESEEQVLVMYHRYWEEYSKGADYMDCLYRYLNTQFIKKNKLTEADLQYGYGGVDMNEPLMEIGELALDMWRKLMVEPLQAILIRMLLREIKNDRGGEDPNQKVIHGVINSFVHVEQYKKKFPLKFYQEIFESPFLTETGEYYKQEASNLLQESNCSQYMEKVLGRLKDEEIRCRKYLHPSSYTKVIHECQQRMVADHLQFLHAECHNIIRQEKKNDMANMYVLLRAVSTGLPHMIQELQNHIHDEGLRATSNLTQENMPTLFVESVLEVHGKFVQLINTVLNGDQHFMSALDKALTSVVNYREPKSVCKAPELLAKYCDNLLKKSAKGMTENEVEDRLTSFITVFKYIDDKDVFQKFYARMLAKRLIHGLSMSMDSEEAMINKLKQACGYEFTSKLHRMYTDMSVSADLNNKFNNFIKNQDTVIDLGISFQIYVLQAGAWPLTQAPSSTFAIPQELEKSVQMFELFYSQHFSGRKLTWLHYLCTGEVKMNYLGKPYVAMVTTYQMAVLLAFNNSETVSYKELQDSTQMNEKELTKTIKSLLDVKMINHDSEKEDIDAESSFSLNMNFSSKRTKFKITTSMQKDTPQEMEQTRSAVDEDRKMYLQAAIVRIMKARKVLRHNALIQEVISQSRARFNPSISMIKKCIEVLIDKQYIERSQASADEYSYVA
T2 sequence (Q15370 whole entry, further chain): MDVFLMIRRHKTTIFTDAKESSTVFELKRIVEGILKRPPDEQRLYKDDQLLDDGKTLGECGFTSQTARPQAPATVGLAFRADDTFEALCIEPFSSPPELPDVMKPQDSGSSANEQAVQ
T2 sequence (P62877 whole entry, further chain): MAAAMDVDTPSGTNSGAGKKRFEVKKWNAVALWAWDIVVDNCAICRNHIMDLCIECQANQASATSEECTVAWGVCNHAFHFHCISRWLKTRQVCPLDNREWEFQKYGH
T2 sequence (P40337 whole entry): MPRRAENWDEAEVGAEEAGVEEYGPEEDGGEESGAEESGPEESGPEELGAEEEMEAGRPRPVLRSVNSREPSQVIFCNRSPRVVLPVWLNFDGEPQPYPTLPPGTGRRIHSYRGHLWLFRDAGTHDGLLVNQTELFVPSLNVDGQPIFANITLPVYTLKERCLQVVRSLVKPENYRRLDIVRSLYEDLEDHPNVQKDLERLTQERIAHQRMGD
T2 sequence (Q15369 whole entry, further chain): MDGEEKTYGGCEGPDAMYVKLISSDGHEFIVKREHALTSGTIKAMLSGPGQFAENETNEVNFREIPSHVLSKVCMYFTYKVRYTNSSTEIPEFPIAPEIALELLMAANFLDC

In the case of `Cc1ncsc1-c1ccc(CNC(=O)[C@@H]2C[C@@H](O)CN2C(=O)[C@@H](NC(=O)CCCCN2CCN([C@H]3CC[C@H](Nc4ncc5ccc(=O)n(C(C)C)c5n4)CC3)CC2)C(C)(C)C)cc1` [G6374], the “number of other kinases inhibited by >90%” value [1] is reported as 9, the “IRE1.KR polyubiquitination in vitro” value [2] is reported as “clear G6374-dependent IRE1 polyubiquitination” and the EC50 (IRE1 H579A:VHL) is reported as 450 ± 60 nM. For the same molecule, the “growth inhibition (cell confluency)” value (AMO1 cells) was “concentration-dependent growth inhibition” and the Dmax (IRE1) was 95%.

From publication PMC12749748, “Chemically-induced degradation of the endoplasmic-reticulum stress sensor IRE1 by a VHL-recruiting chimera” (Nature Communications, 2025)
